Results taken from patent US10952974B2, “Delivery of bioactive, nanoencapsulated antioxidants” (Board of Supervisors of Louisiana State University and …, priority 2014, dated 2021).
≈ marks a conversion by molar mass, not a printed value. Read-outs that look alike come from different tables or passages of the source.

Key:
[1] = Solubility of lutein in water and organic solvents; format: physicochemical; conditions: chloroform vs ethanol
[2] = test system: selenite-induced cataract; assay: Selenite-induced cataract in rat pups, first animal study; format: in vivo, Wistar albino rat
Protocol: Four pregnant Wistar female albino rats were obtained from the Laboratory Animal Facility of the Iuliu Hatieganu University of Medicine and Pharmacy in Cluj-Napoca, Romania. Each female rat and its litter of pups were housed in plastic cages, on a 12 h lighting cycle, at constant temperature (22° C.) with free access to rat chow and tap water. At 12 days of age, the rat pups were randomized into seven groups as follows:
Group 1 (selenite group, positive control): no exposure to lutein
Group 2 (PLGA-NP-1) daily received orally, by gavage, 2.5 mg/kg PLGA-NP-lutein dispersed in a 0.5 mL emulsion of 30% olive oil+70% flour slurry, corresponding to a daily dose of 2.66 mg lutein/kg body mass. (The flour slurry, in turn, had been prepared by mixing 0.3 g flour in 1 ml water.)
Group 3 (PLGA-NP-2) daily received orally, by gavage, 5 mg/kg PLGA-NP-lutein dispersed in 0.5 mL emulsion of 30% olive oil+70% flour slurry, corresponding to a daily dose of 5.32 mg lutein/kg body mass. (Flour slurry: identical to that used for Group 2
Group 4 (lutein) daily received orally, by gavage, 0.00525 mg unmodified lutein dispersed in 0.5 mL emulsion of 30% olive oil+70% flour slurry, corresponding to a daily dose of 0.125 mg lutein/kg body mass. (Flour slurry: identical to that used for Group 2.)
Group 5 (HG-PLGA-NP-1) was treated locally, once a day, with corneal application (1 drop in each eye) of 1 wt % PLGA-NP-lutein in the bioadhesive hydrogel of Example 19. (30 mg of lyophilized lutein-loaded PLGA NPs were dissolved in 3 ml of bioadhesive hydrogel. The volume of one drop of hydrogel was approx. 0.012 mL, with a density of 0.9444 g/mL.)
Group 6 (HG-PLGA-NP-2) was treated locally, once a day, by corneal application (1 drop/in each eye) with 3% PLGA-NP-lutein in a bioadhesive hydrogel. (90 mg of lyophilized lutein-loaded PLGA NPs were dissolved in 3 ml of bioadhesive hydrogel. The volume of one drop of hydrogel was approx. 0.012 mL, with a density of 0.9444 g/mL.)
Group 7 (negative control)—no exposure to selenite, and no lutein treatment.
On day 13 post-partum, cataracts were induced in all animals in Groups 1-6 with a single, intraperitoneal injection of sodium selenite (Na2SeO3), 30 μmol/kg. Subsequently, the animals from groups 2-6 were treated daily, in accordance with the protocols described above. The lutein content of the PLGA-NPs (42.61 μg lutein/mg PLGA-NP) was assessed by UV-VIS spectrophotometry (450 nm) with an external standard calibration. On day 21 post-partum, cataract development was evaluated by slit-lamp examination. Eyes were scored into one of five stages: stage 0 (no cataract), stage 1 (slight nucleus opacity), stage 2 (mild nucleus opacity, a central while opacity occupying less than half the diameter of the nucleus), stage 3 (dense opacity, a central while opacity occupying more than half the diameter of the nucleus) and stage 4 (dense, white opacity over the whole nucleus). Statistics were performed in SPSS 14.0 for Windows and Excel. The variables were checked for normal distribution with the Shapiro-Wilk test. Groups were compared with the Wilcoxon test. Statistical significance was set at p<0.05.

[3] = cited from earlier work
[4] = cited from earlier work; remark: listed apart in the source
[5] = oral gavage daily, 0.125 mg lutein/kg, day 21 postpartum

## CC1=C[C@H](O)CC(C)(C)[C@H]1/C=C/C(C)=C/C=C/C(C)=C/C=C/C=C(C)/C=C/C=C(C)/C=C/C1=C(C)C[C@@H](O)CC1(C)C [Lutein, β,ε-carotene-3,3′-diol]
[1]
  solubility in chloroform relative to solubility in ethanol: 20 times
[2]; [5]
  Cataract stage Mean ± SD: 3.2 ± 0.8
  Stage 0: 0 no. animals
  Stage 1: 0 no. animals
  Stage 2: 1 no. animals
  Stage 3: 2 no. animals
  Stage 4: 2 no. animals
[2]; treated orally
  reduction in cataract development vs selenite group: small (and statistically insignificant) reduction in cataract development
[3]; stored at −20° C. under a nitrogen atmosphere
  Stability: Stable if stored at −20 °C under a nitrogen
[3]; to light and oxygen
  Stability: Unstable to light and oxygen;
[4]; in 2-Propanol
  Solubility: 400 µg/mL (≈ 703 µM)
[4]; in Acetone
  Solubility: 800 µg/mL (≈ 1410 µM)
[4]; in Acetonitrile
  Solubility: 100 µg/mL (≈ 176 µM)
[4]; in Benzene
  Solubility: 600 µg/mL (≈ 1050 µM)
[4]; in Chloroform
  Solubility: 6000 µg/mL (≈ 10500 µM)
[4]; in Cyclohexane
  Solubility: 50 µg/mL (≈ 87.9 µM)
[4]; in Cyclohexanone
  Solubility: 4000 µg/mL (≈ 7030 µM)
[4]; in Dimethyl formamide
  Solubility: 1000 µg/mL (≈ 1760 µM)
[4]; in Ethyl acetate
  Solubility: 800 µg/mL (≈ 1410 µM)
[4]; in Ethyl alcohol
  Solubility: 300 µg/mL (≈ 527 µM)
[4]; in Ethyl ether
  Solubility: 2000 µg/mL (≈ 3520 µM)
[4]; in Hexane
  Solubility: 20 µg/mL (≈ 35.2 µM)
[4]; in Methyl alcohol
  Solubility: 200 µg/mL (≈ 352 µM)
[4]; in Methyl tert butyl ether
  Solubility: 2000 µg/mL (≈ 3520 µM)
[4]; in Tetrahydrofuran
  Solubility: 8000 µg/mL (≈ 14100 µM)
[4]; in Toluene
  Solubility: 500 µg/mL (≈ 879 µM)
[4]
  Solubility in water: Insoluble
[4]; listed as lutein
  Solubility in water: water-insoluble
